Assay results reported in patent publication US20080113041A1, “CALCIUM SUPPLEMENTATION TO REDUCE PROSTATE CANCER RISK” (Trustees of Dartmouth College, priority 2001, published 2008).
Where two headings read alike, the source gives them in different places.

Columns and labels:
prostate cancer [1] = conditions: for men diagnosed with prostate cancer: 345 men randomized to calcium; for adjusted odds ratio for prostate cancer: calcium vs placebo, 1200 mg elemental calcium (as carbonate); for toxicity: four years of treatment, 3000 mg calcium carbonate
Description: To investigate this issue in a randomized study, we investigated the association between prostate cancer risk and treatment assignment in a large, double blind chemoprevention trial of calcium carbonate supplementation for the prevention of large bowel adenomas. Treatment was for four years in two randomized groups: placebo or 1200 mg elemental calcium (as carbonate).
The Calcium Polyp Prevention Study from which the data for this study were obtained involved six clinical centers: the Cleveland Clinic Foundation, Dartmouth-Hitchcock Medical Center, the University of Southern California/Southern California Permanente Medical Group, the University of Iowa, University of Minnesota, and the University of North Carolina Dartmouth was the coordinating center. Human subjects committees at each center approved the study protocol; an independent safety and data monitoring committee reviewed the study semi-annually.
Eligible patients were less than eighty years old, in good health, and without a history of familial polyposis, invasive large bowel cancer, malabsorption syndromes, or any condition which might be worsened by supplemental calcium. We aimed to randomize 860 subjects to have 80% power to detect a 25% reduction in […].
We reviewed data from 2,918 apparently eligible patients. […] We assigned these subjects to calcium or placebo using computer-generated random numbers, blocking by study center. […] Study tablets contained 3000 mg of calcium carbonate (1200 mg of elemental calcium); or, an identical-appearing cellulose/sucrose placebo. The trial was double-blind; neither subjects nor study staff were told the subjects' treatment assignments.
At enrollment and at the time of each of two follow-up colonoscopies, we obtained venous blood specimens in mineral-free tubes. Serum was initially stored at −20° C. or lower, pending shipment to Dartmouth for storage at −70° C. until analysis. At enrollment and the end of the study, we also assessed subjects' diet with a validated food frequency questionnaire (Block et al., Am. J. Epidemiol., 124:453-69, 1986). Every six months, we sent patients questionnaires regarding adherence to study agents; use of medications, over-the-counter drugs and nutritional supplements; and the occurrence of symptoms, illnesses, and hospitalizations. Recruitment into the study began in November 1988 and ended in April 1992. Follow-up ended in December 1996.
To summarize the association between prostate cancer and treatment assignment, we used Kaplan-Meier survival curves as well as odds ratios (OR's) and 95% CI's, computed using logistic regression with adjustment for age, clinical center, and baseline dietary calcium. OR's were calculated for the period from randomization to end of treatment and, to accommodate possible delays in cancer detection and/or latent treatment effects, for the period from randomization to end of treatment plus 12 months (i.e., five years).

colorectal adenomas = conditions: cited from earlier work
prostate cancer [2] = conditions: adjuvant arm after prostatic and pelvic radiation therapy; T3, N0, or any T, N1, M0 disease; 71% on observation arm, p=0.52; cited from earlier work
[3] = 913 subjects with at least one study examination, calcium carbonate 3 gm daily vs placebo

In the case of `O=C([O-])[O-].[Ca+2]` [calcium, calcium carbonate], the “men diagnosed with prostate cancer” value (prostate cancer [1]; after five years of follow-up) is reported as 11 men, the “men diagnosed with prostate cancer” value (prostate cancer [1]; after four years of follow-up) is reported as 8 men and the “risk of prostate cancer” value (prostate cancer [1]; assignment to calcium supplementation vs placebo) is reported as “statistically significant reduction”. The “incidence of prostate cancer, Kaplan-Meier curves versus placebo” value (prostate cancer [1]; by year three of follow-up) was “lower incidence”, the “adjusted odds ratio for prostate cancer” value (prostate cancer [1]; five-year follow-up (end of treatment plus 12 months)) was 0.43 and the toxicity (prostate cancer [1]) was “without toxicity”. For the same compound, the toxicity (prostate cancer [1]; listed as calcium carbonate) was “minimal”, the “adjusted odds ratio for prostate cancer” value (prostate cancer [1]; four-year treatment period, adjusted for age, clinical center, baseline dietary calcium) was 0.54 and the “adjusted ratio of the average numbers of adenomas” value (colorectal adenomas; [3]) was 0.76. The “adjusted risk ratio of any adenoma recurrence” value (colorectal adenomas; [3]) was 0.85 and the “toxicity associated with supplementation” value (colorectal adenomas; calcium carbonate 3 gm daily) was “No toxicity”.
In the case of `CC(C)C[C@H](NC(=O)[C@@H](COC(C)(C)C)NC(=O)[C@H](Cc1ccc(O)cc1)NC(=O)[C@H](CO)NC(=O)[C@H](Cc1c[nH]c2ccccc12)NC(=O)[C@H](Cc1cnc[nH]1)NC(=O)[C@@H]1CCC(=O)N1)C(=O)N[C@@H](CCCNC(=N)N)C(=O)N1CCC[C@H]1C(=O)NNC(N)=O` [goserelin], the “actuarial overall 5-year survival rate” value (prostate cancer [2]) is given as 75%.
